Values joined by “and” are separate entries in the source; they are usually repeats but may differ in a detail not shown here. Identical values can stand only once. “Also recorded” adds a separate entry of the source. Like-named read-outs stand apart in the source and are kept apart here.
Legend:
[1] = molecular target: SARS-CoV-2 PL^pro (Severe acute respiratory syndrome coronavirus 2, UniProt P0DTD1); assay: PL^pro enzymatic inhibition assay (FRET-based, Z-RLRGG-AMC substrate); assay type: biochemical; settings: for Kd: enzymatic inhibition assay, 25 °C, pH 7.5
[2] = molecular target: SARS-CoV-2 M^pro (Severe acute respiratory syndrome coronavirus 2, UniProt P0DTD1); assay: biochemical; assay type: biochemical
[3] = molecular target: PL^pro (Severe acute respiratory syndrome coronavirus 2, UniProt P0DTD1); assay type: binding
[4] = molecular target: M^pro (Severe acute respiratory syndrome coronavirus 2, UniProt P0DTD1); assay type: binding
[5] = molecular target: wt PL^pro (Severe acute respiratory syndrome coronavirus 2, UniProt P0DTD1)
[6] = Table 2 disulfide compounds, PL^pro dialyzed to avoid DTT
[7] = Table 2 disulfide compounds, enzymatic inhibition assay, 25 °C, pH 7.5
[8] = Table 1 thiazole series, uncertainty approx. 1.8-fold of Kd
[9] = no reducing agents, 1 h incubation at room temperature

Question: For `O=C(O)CCNc1ccccc1SSc1ccccc1NCCC(=O)O` [Compound 33], which Kd [1, 6] is on record?
Answer: 2 µM

Question: And the Kd [2, 7]?
Answer: > 200 µM

Question: Which results are given for `C/C(=N/N=C(/C)c1sc(N(CCC(=O)O)c2cccc3ccccc23)nc1C)c1sc(N(CCC(=O)O)c2cccc3ccccc23)nc1C` [Compound 24]?
Answer: Kd [1, 8]: 8 µM; Kd [2]: > 200 µM

Question: For `O=C(O)CCN(c1nc(CNc2ccccc2)cs1)c1cccc2ccccc12` [Compound 12], which Kd [1, 8] is on record?
Answer: 29 µM

Question: And the Kd [2]?
Answer: > 200 µM

Question: What does the source list for `Cc1csc(N(CCC(=O)O)c2cccc3ccccc23)n1` [Compound 4]?
Answer: Kd [1, 8]: 110 µM; Fold weakening of PL^pro interaction compared to compound 3 ([1]; vs parent compound 3): 8 fold; Kd [2]: > 200 µM

Question: For `Nc1ccc(N(CCC(=O)O)c2nc(-c3ccc(F)cc3)cs2)cc1` [Compound 30b], which Kd [1, 8] is on record?
Answer: ≥ 50 µM

Question: And the Kd [2]?
Answer: > 200 µM

Question: For `Cc1nc(N(CCC(=O)O)c2cccc3ccccc23)sc1C(=O)/C=C/c1ccc(Cl)cc1` [Compound 21b], which “Fold higher PL^pro affinity than compound 25b” value [1] is on record?
Answer: 2 fold

Question: And the “Fold improvement of PL^pro interaction in styryl ketone series” value [1]?
Answer: 4

Question: And the Kd [1, 8]?
Answer: 29 µM

Question: And the Kd [2]?
Answer: 17 µM

Question: Which Kd [1, 8] does the source give for `O=C(O)CCN(c1nc(CCl)cs1)c1cccc2ccccc12` [Compound 9] here?
Answer: ≥ 50 µM

Question: And the Kd [2]?
Answer: > 200 µM

Question: With `Nc1ccccc1SSc1ccccc1N` [Compound 32] as the compound, how does the Kd [1, 6] read?
Answer: 0.54 µM

Question: What about the Kd [2, 7] of the same compound?
Answer: 2.8 µM

Question: And the “Covalent binding to PL^pro by mass spectrometry” value [3, 9]?
Answer: covalent binding of 32 with PL^pro and M^pro was confirmed

Question: And the “Mass shift of PL^pro-compound adduct (major peak)” value ([3]; protein/ligand molar ratio 1:5 for 32)?
Answer: 123.13 Da

Question: What about the “Covalent binding to M^pro by mass spectrometry” value [4, 9] of the same compound?
Answer: covalent binding of 32 with PL^pro and M^pro was confirmed

Question: And the “Mass shift of M^pro-compound adduct (major peak)” value ([4]; protein/ligand molar ratio 1:10)?
Answer: 245.73 Da and 245.7 Da

Question: And the “Thermal effect (Tm) on wild-type PL^pro” value [5]?
Answer: strongly destabilized the native PL^pro; also recorded: thermal destabilization effect (Tm decrease) induced by 32 is seen only for wild-type PL^pro

Question: Which results are given for `O=C(O)CCNc1cccc2ccccc12` [Compound 1, 3-(naphtylamino]propanoic acid]?
Answer: Kd [1, 8]: 68 µM; Kd [2]: > 200 µM

Question: For `N#Cc1ccc(-c2csc(N(CCC(=O)O)c3cccc4ccccc34)n2)cc1` [Compound 6e], which Kd [1, 8] is on record?
Answer: 20 µM

Question: What about the Kd [2] of the same compound?
Answer: > 200 µM

Question: What does the source list for `O=C(CNc1ccccc1SSc1ccccc1NCC(=O)c1ccccc1)c1ccccc1` [Compound 38]?
Answer: Kd [1, 6]: 1.9 µM; Kd [2, 7]: > 200 µM

Question: Which Kd [1, 8] does the source give for `CCOC(=O)c1sc(N(CCC(=O)O)c2cccc3ccccc23)nc1C` [Compound 20] here?
Answer: 29 µM

Question: And the Kd [2]?
Answer: > 200 µM

Question: What does the source list for `CC(=O)c1sc(N(CCC(=O)O)c2cccc3ccccc23)nc1C` [Compound 19]?
Answer: Kd [1, 8]: ≥ 50 µM; Kd [2]: > 200 µM

Question: Which Kd [1, 8] does the source give for `CCOC(=O)Cc1csc(N(CCC(=O)O)c2cccc3ccccc23)n1` [Compound 11] here?
Answer: > 200 µM

Question: And the Kd [2]?
Answer: > 200 µM

Question: Which “Fold improvement of PL^pro interaction in styryl ketone series” value [1] does the source give for `Cc1nc(N(CCC(=O)O)c2cccc3ccccc23)sc1C(=O)/C=C/c1ccc(F)cc1` [Compound 21c] here?
Answer: two times

Question: What about the Kd [1, 8] of the same compound?
Answer: 52 µM

Question: And the Kd [2]?
Answer: > 200 µM

Question: Which Kd [1, 8] does the source give for `O=C(O)CCN(c1nc(-c2ccc3ccccc3c2)cs1)c1cccc2ccccc12` [Compound 8] here?
Answer: 35 µM

Question: What about the Kd [2] of the same compound?
Answer: > 200 µM

Question: Which Kd [1, 8] does the source give for `Cc1ccc(N(CCC(=O)O)c2nc(-c3ccc(C#N)cc3)c(/C=N\Nc3ccccc3)s2)cc1` [Compound 27c] here?
Answer: 15 µM

Question: And the Kd [2]?
Answer: > 200 µM

Question: For `Cc1ccc(N(CCC(=O)O)c2nc(C)c(C(=O)C=Cc3ccc(F)cc3)s2)cc1` [Compound 25c], which Kd [1, 8] is on record?
Answer: 58 µM

Question: And the Kd [2]?
Answer: > 200 µM

Question: What does the source list for `O=C(O)CCN(C1=NC(=O)CS1)c1cccc2ccccc12` [Compound 5]?
Answer: Kd [1, 8]: > 200 µM; Kd [2]: > 200 µM

Question: What does the source list for `O=C(O)CCN(c1nc(-c2ccc(Cl)c(Cl)c2)cs1)c1cccc2ccccc12` [Compound 7]?
Answer: Kd [1, 8]: ≥ 50 µM; Kd [2]: > 200 µM

Question: Which results are given for `O=C(O)CCN(c1nccs1)c1cccc2ccccc12` [Compound 3, 3-[naphthalene-1-yl(1,3-thiazol-2-yl)amino]propanoic acid]?
Answer: Kd [1, 8]: 14 µM; Kd [2]: 25 µM

Question: Which Kd [1, 8] does the source give for `COC(=O)C=C1SC(N(CCC(=O)O)c2cccc3ccccc23)=NC1=O` [Compound 17] here?
Answer: > 200 µM

Question: What about the Kd [2] of the same compound?
Answer: > 200 µM

Question: What does the source list for `O=C(O)CCN(c1nc(-c2ccc(F)cc2)cs1)c1cccc2ccccc12` [Compound 6c]?
Answer: Kd [1, 8]: ≥ 50 µM; Kd [2]: > 200 µM

Question: For `O=C(O)CCN(C1=NC(=O)C(=Cc2ccccc2O)S1)c1cccc2ccccc12` [Compound 15], which Kd [1, 8] is on record?
Answer: ≥ 50 µM

Question: And the Kd [2]?
Answer: > 200 µM

Question: And the melting point?
Answer: 203 to 204 °C

Question: What does the source list for `Cc1ccc(N(CCC(=O)O)c2nc(C)c(C(=O)C=Cc3ccccc3)s2)cc1` [Compound 25a]?
Answer: Kd [1, 8]: 83 µM; Kd [2]: > 200 µM

Question: Which Kd [1, 8] does the source give for `O=C(O)CCN(C1=NC(=O)C(=Cc2ccc(Cl)cc2)S1)c1cccc2ccccc12` [Compound 13b] here?
Answer: ≥ 50 µM

Question: What about the Kd [2] of the same compound?
Answer: > 200 µM

Question: What does the source list for `O=C(O)CCN(C1=NC(=O)C(=Cc2ccc(O)cc2O)S1)c1cccc2ccccc12` [Compound 14]?
Answer: Kd [1, 8]: 9.2 µM; Kd [2]: > 200 µM; melting point: 205 to 206 °C

Question: Which results are given for `Nc1ccc(N(CCC(=O)O)c2nc(-c3ccc(Cl)cc3)cs2)cc1` [Compound 30a]?
Answer: Kd [1, 8]: ≥ 50 µM; Kd [2]: > 200 µM

Source: paper PMC10488051, “Screening, Synthesis and Biochemical Characterization of SARS-CoV-2 Protease Inhibitors” (International Journal of Molecular Sciences, 2023)
